{"source": "patent US11980620B2", "about": "“Compounds and methods for treatment of Diamond Blackfan anemia” (THE CHILDREN'S MEDICAL CENTER CORPORATION, priority 2017, dated 2024)", "type_in_all_cases": "cell-based, human", "key": {"DBA CD34-5F cells": {"tested_on": "DBA CD34-5F cells", "experiment": "Erythroid differentiation (CD71+GlyA+) of CD34-5F cells from DBA iPSCs", "protocol": "(§1) (FIG. 8A) The distribution of 1440 compounds by Z-score in a proliferation-based screen of the Sigma LOPAC chemical library. DBA CD34-5F cells were plated in erythroid-promoting conditions in 384-well format. Erythroid proliferation was measured in the presence of 5 μM of each compound, and converted into Z-scores. The screen was carried out with 3 RPS19 DBA and 2 normal iPSC lines. (FIG. 88) Dose-dependent effect of SMER28 (in μM) on erythroid differentiation, shown as the absolute number of erythroid cells in each drug-treated condition normalized to vehicle (DMSO) control. Erythroid cells were analyzed on day 9 of differentiation using markers CD71 and GlyA. Dose curve was performed with DBA (n=5) and control (n=3) iPSCs. Non-linear regression curve was plotted to calculate EC50 values. (FIGS. 8C and 8D) Dose-dependent effect of SMER28 (in μM) on erythroid differentiation of CB CD34^+ RPS19^+ cells. (FIG. 8C) Absolute number of erythroid cells (analyzed on day 9) in each drug-treated condition normalized to vehicle (DMSO) control (4 independent experiments). Non-linear regression curve was plotted to calculate EC50 values. (FIG. 8D) Representative flow plots of control (shLUC) and RPS19th cells treated with DMSO or increasing doses of SMER28.\n(FIG. 12A) Erythroid differentiation of control and DBA CD34-5F cells treated with DMSO vehicle or SMER28 (10 μM) during the initial CD34^+ progenitor phase (day 0-4 of differentiation), or stage I of erythroid culture (day 4-9 of differentiation). Percent of erythroid cells after stage I of differentiation is indicated in top left for each condition, and quantitated in (FIG. 12B). Data are shown as mean f s.e.m. of 4 independent experiments, with 2 control and 4 DBA iPSCs. (FIG. 12C) Same as (FIG. 12A) for CB CD34+ cells transduced with shRPS19 hairpins. GFP^+ RPS19^sh and GFP^− control cells were quantitated separately. […] (FIG. 12D) RBC pellets at the end of stage III initiated with equal numbers of CD34-5F or CB progenitors. SMER28 was added at […]. (FIG. 12E) May-Grunwald-Giemsa stain of erythroid cells from CB CD34^+ at end of stage III. Arrows indicate enucleated RBCs, which are quantitated by flow cytometry. (FIG. 12F) Quantitation of the enucleation efficiency (left) of GLYA^+ cells. Data in FIGS. 12E-12F represents 3 independent experiments. For all panels, *p<0.05, **p<0.01.\nErythroid differentiation. Differentiation was performed essentially as described (Lee et al., 2015). CD34 expansion phase (4 days): To initiate differentiation CD34-5F cells were cultured in progenitor media without Dox. Stage I (5 days): Media were changed to: IMDM+1% BSA (Gibco), 20% FBS (Stem Cell Technologies), 1 mM L-glutamine, penicillin/streptomycin, 500 μg/ml h-transferrin (Sigma), 10 μg/ml human insulin (CellSciences), 1 μM β-estradiol, 1 μM Dex, 6U Epo (CellSciences), 100 μg/ml SCF, and 5 μg/ml IL-3. Cells were seeded at a density of <1×10^5 cells/ml in 24-well plates. Stage 11 (4 days). Media were changed to: IMDM+1% BSA, 20% FBS, 1 mM L-glutamine, penicillin/streptomycin, 500 μg/ml h-transferrin, 10 μg/ml human insulin, 6U Epo, and 50 μg/ml SCF. Cells were seeded at a density of <2×10^5 cells/ml in 24-well plates. Stage III (10 days) Media were changed to: IMDM+1% BSA, 20% FBS, 1 mM L-glutamine, penicillin/streptomycin, 500 μg/ml h-transferrin, 10 μg/ml human insulin, and 2U Epo. Cells were seeded at a density of <5×10^5 cells/ml in 24-well plates.\nDrug treatments. […]"}, "control iPSCs": {"tested_on": "control iPSCs", "experiment": "Erythroid differentiation (CD71+GlyA+) of CD34-5F cells from control iPSCs", "protocol": "as §1, with “Dose curve was performed with DBA (n=5) and control (n=3) iPSCs. Non-linear regression curve was plotted to calculate EC50 values. (FIGS. 8C and 8D) Dose-dependent effect of SMER28 (in μM) on erythroid differentiation of CB CD34^+ RPS19^+ cells.” left out, “Non-linear regression curve was plotted to calculate EC50 values. (FIG. 8D) Representative flow plots of control (shLUC) and RPS19th cells treated with DMSO or increasing doses of SMER28.” left out\n(§2) (FIG. 12A) Erythroid differentiation of control and DBA CD34-5F cells treated with DMSO vehicle or SMER28 (10 μM) during the initial CD34^+ progenitor phase (day 0-4 of differentiation), or stage I of erythroid culture (day 4-9 of differentiation). Percent of erythroid cells after stage I of differentiation is indicated in top left for each condition, and quantitated in (FIG. 12B). […] GFP^+ RPS19^sh and GFP^− control cells were quantitated separately. […] Arrows indicate enucleated RBCs, which are quantitated by flow cytometry. […]"}, "CB CD34+ RPS19sh cells": {"tested_on": "CB CD34+ RPS19sh cells", "experiment": "Erythroid differentiation of CB CD34+ progenitors transduced with shRNAs for RPS19", "protocol": "as §1, with “Dose curve was performed with DBA (n=5) and control (n=3) iPSCs. Non-linear regression curve was plotted to calculate EC50 values. (FIGS. 8C and 8D) Dose-dependent effect of SMER28 (in μM) on erythroid differentiation of CB CD34^+ RPS19^+ cells.” left out, “Non-linear regression curve was plotted to calculate EC50 values. (FIG. 8D) Representative flow plots of control (shLUC) and RPS19th cells treated with DMSO or increasing doses of SMER28.” left out\nas §2"}}}
{"smiles": "C=CCNc1ncnc2ccc(Br)cc12", "note": "[SMER28, 6-Bromo-N-2-propenyl-4-quinazolinam]", "values": [{"measurement": "output of GlyA+ cells", "setting": "DBA CD34-5F cells; 10 μM, treated only during initial expansion phase (day 0-4), DBA progenitors", "result": "increased output"}, {"measurement": "CD71+GlyA- pre-erythroblasts", "setting": "DBA CD34-5F cells; 10 μM, treatment during stage I (day 4-9)", "result": "expanded"}, {"measurement": "number of GlyA+ cells", "setting": "DBA CD34-5F cells; 10 μM, treatment of erythroblasts during stage I (day 4-9)", "result": "did not significantly increase"}, {"measurement": "effect on number of erythroid cells normalized to vehicle", "setting": "DBA CD34-5F cells; DBA iPSCs", "result": 9.8, "unit": "fold"}, {"measurement": "EC50", "setting": "DBA CD34-5F cells; Homo sapiens, iPSC, 216 h, RPS19+/- and RPL5 DBA iPSCs, day 9, normalized to DMSO, 95% confidence interval 0.63 to 2.37 μM, read-out: EC50, absolute number of CD71+GlyA+ erythroid cells", "result": 1500, "unit": "nM"}, {"measurement": "effect on number of erythroid cells normalized to vehicle", "setting": "control iPSCs", "result": 2.5, "unit": "fold"}, {"measurement": "EC50", "setting": "control iPSCs; Homo sapiens, iPSC, read-out: EC50, number of erythroid cells", "result": 1600, "unit": "nM"}, {"measurement": "erythroid output of RPS19sh cells", "setting": "CB CD34+ RPS19sh cells; dose curve, highest activity at lower doses", "result": "robustly increased"}, {"measurement": "erythroid output", "setting": "CB CD34+ RPS19sh cells; treatment of undifferentiated CD34+ RPS19sh cells", "result": "sufficient to improve erythroid output"}]}
